Results from patent US8217176B2, “Fused heterocyclic derivative and use thereof” (Takeda Pharmaceutical Company Limited, priority 2008, dated 2012).
Counter-ions that a name gives are not always drawn.

Columns and labels:
[1] = system: mouse medulloblastoma allogeneic transplantation model; assay: In vivo anti-tumor test, mouse medulloblastoma allogeneic transplantation model; settings: 6.25 mg/kg orally twice a day for 2 weeks; nude mouse, subcutaneous medulloblastoma from Patched 1(+/-), p53(-/-) mouse; end of administration
Procedure: According to the description in Sasaki, K. et al., (2006) Cancer Res. 66: 4215-4222, an anti-tumor effect of a compound was evaluated using a mouse medulloblastoma allogeneic transplantation model. To be precise, Patched 1 gene mutant mouse (lineage name: Ptch1tm1Mps/J) was purchased from The Jackson Laboratory and p53 gene mutant mouse (lineage name: P53N4-M, Nomenclature: B6.129-Trp53tm/BrdN4) was purchased from Taconic, and a mouse of Patched 1(+/−), p53(−/−) phenotype was prepared by mating. The tumor tissue of medulloblastoma spontaneously occurred in the cerebellum of 7- to 9-week-old Patched 1(+/−), p53(−/−) mouse was taken and subcutaneously transplanted into a nude mouse (lineage name: CAnN.Cg-Foxn1/CrlCrlj).
An anti-tumor test was performed using a tumor passaged by subcutaneous transplantation. A tumor mass was isolated by a 40 μm cell strainer (BD Biosciences, Cat. No. 352340), a tumor suspension was prepared with Leibovitz's L-15 medium (GIBCO, Cat. No. 11415-114) in a 2-fold amount relative to the tumor mass weight, mixed with an equivalent amount of matrigel (BD Biosciences, Cat. No. 356237), and subcutaneously transplanted to a mouse at […] per transplantation site. The tumor diameter after transplantation was measured and, when the tumor size reached 150-250 mm^3, the anti-tumor test was started using 5 mice per group.
The test compound was prepared to achieve a dose of 6.25 mg/kg with a 0.5% methylcellulose (Shin-Etsu Chemical Co., Ltd., Cat. No. SM-100) suspension, and orally administered twice a day for 2 weeks. The tumor size was calculated based on the longer diameter and shorter diameter of the tumor measured with an electron vernier caliper. After the start of the test, the tumor size was measured every 2 or 3 days and the growth rate of the tumor size was calculated. A tumor growth inhibitory effect of 95% or above was confirmed in each test compound administration group.
The tumor growth rate and the results of a significant difference test by the administration of each test compound are shown in the Table. The growth rate of the tumor size (T/C) was calculated according to: growth rate (T/C)=((tumor size of compound administration group at the end of administration)−(tumor size of compound administration group at the start of administration))/((tumor size of control group at the end of administration)−(tumor size of control group at the start of administration))×100.

[2] = system: NIH-3T3/Gli reporter cells; assay: Evaluation of compound: Shh-N-induced luciferase activity in NIH-3T3/Gli reporter cells (Smo inhibitory action); type: cell-based; settings: 48 hr; for inhibition at 1 µM: NIH3T3, 1 μM compound, mouse Shh-N end fragment supernatant, read-out: inhibition rate (%) at 1 μM; for IC50: NIH3T3, mouse Shh-N end fragment supernatant, read-out: IC50 value (compound concentration necessary for achieving 50% of the maximum value of inhibition rate)
Procedure: HEK293 cells were grown in D-MEM medium (Invitrogen) containing 10% fetal bovine serum in a 10 cm dish and pcDNA3.1/mShh-N was introduced into the cells using FuGENE6 (Roche Applied Science). Thereafter, the HEK293 cells were cultured in a carbon dioxide gas incubator at 37° C. for 24 hours, and the medium was exchanged with D-MEM medium (Invitrogen) containing 2% fetal bovine serum. After culturing for 48 hr, a culture supernatant containing recombinant type mouse Shh-N end fragment was obtained by filtration using a filter ([…]).
Using D-MEM (Invitrogen) containing 10% fetal bovine serum, expression plasmid pcDNA3.1 and Gli reporter plasmid (pGL3/δ-cry promoter, 8×Gli binding site) produced by the method of Experimental Example 1 were introduced into NIH-3T3 cells grown in a 10 cm dish by the use of FuGENE6 (Roche Applied Science).
After culture for 24 hr, the cells were recovered, suspended in D-MEM medium containing 10% fetal bovine serum and supplemented with Geneticin (Life Technologies Oriental, Inc.) to a final concentration of 500 μg/ml, diluted to 10^4 cells/ml, plated on a 96 well plate, and cultured in a carbon dioxide gas incubator at 37° C. to give Geneticin resistant transformed cell line.
The obtained transformed cell line was cultured in a 96 well plate, mouse Shh-N end fragment obtained in Experimental Example 3 was added, and NIH-3T3/Gli reporter cell, which is a cell line capable of induction of luciferase expression, was selected.
NIH-3T3/Gli reporter cells cultured in D-MEM (Invitrogen) containing 10% fetal bovine serum were plated in a 96 well white plate at 1×10^4 cells/well, and cultured overnight in a carbon dioxide gas incubator at 37° C. The medium was removed, a compound (50 μl) and culture supernatant of mouse Shh-N end fragment-expressing HEK293 (D-MEM medium containing 2% fetal bovine serum, 50 μl) were added, and the cells were cultured for 48 hr in a carbon dioxide gas incubator at 37° C. Bright-Glo (Promega, 50 μl) was added, and the mixture was stirred, after which luciferase activity was measured by EnVision (PerkinElmer). The inhibition rate was calculated based on the luciferase activity of the control without addition of the compound as 100. The concentration of the compound and the inhibition rate were analyzed by PRISM3.00 (software of GraphPad), based on which the IC50 value (compound concentration necessary for achieving 50% of the maximum value of inhibition rate) of the compound was calculated.

With `CCc1cc2c(c(OCC(F)(F)F)c(C(=O)NC3CCN(C(=O)CO)CC3)n2C)c(=O)n1CC(=O)c1ccccc1` [Example 143, 6-ethyl-N-[1-(hydroxyacetyl)piperidin-4-yl]-1-methyl-4-oxo-5-(2-oxo-2-phenylethyl)-3-(2,2,2-trifluoroethoxy)-4,5-dihydro-1H-pyrrolo[3,2-c]pyridine-2-carboxamide] the “T/C (%) growth rate of the tumor size” value [1] was 0.0% and the inhibition at 1 µM [2] was 100%.

With `COc1c(C(=O)NC2CCN(CCO)CC2)n(C)c2c1c(=O)n(CC(=O)c1ccccc1)c1ccccc21` [Example 79, N-[1-(2-hydroxyethyl)piperidin-4-yl]-3-methoxy-1-methyl-4-oxo-5-(2-oxo-2-phenylethyl)-4,5-dihydro-1H-pyrrolo[3,2-c]quinoline-2-carboxamide] the “T/C (%) growth rate of the tumor size” value [1] was 0.8%, the inhibition at 1 µM [2] was 100% and the IC50 [2] was at most 1000 nM.

With `COc1c(C(=O)NC2CCN(C(=O)CO)CC2)n(C)c2c1c(=O)n(CC(=O)c1ccccc1)c1ccccc21` [Example 124, N-[1-(hydroxyacetyl)piperidin-4-yl]-3-methoxy-1-methyl-4-oxo-5-(2-oxo-2-phenylethyl)-4,5-dihydro-1H-pyrrolo[3,2-c]quinoline-2-carboxamide] the “T/C (%) growth rate of the tumor size” value [1] was 2.0% and the inhibition at 1 µM [2] was 100%.

`CCOc1c(C(=O)NC2CCN(C(=O)CO)CC2)n(C)c2cc(CC)n(CC(=O)c3ccccc3)c(=O)c12` [Example 139, 3-ethoxy-6-ethyl-N-[1-(hydroxyacetyl)piperidin-4-yl]-1-methyl-4-oxo-5-(2-oxo-2-phenylethyl)-4,5-dihydro-1H-pyrrolo[3,2-c]pyridine-2-carboxamide] was tested, and the “T/C (%) growth rate of the tumor size” value [1] was 0.4% and the inhibition at 1 µM [2] was 100%.

With `Cc1cc2c(c(OCC(F)(F)F)c(C(=O)NC3CCN(C(=O)CO)CC3)n2C)c(=O)n1CC(=O)c1ccccc1` [Example 140, N-[1-(hydroxyacetyl)piperidin-4-yl]-1,6-dimethyl-4-oxo-5-(2-oxo-2-phenylethyl)-3-(2,2,2-trifluoroethoxy)-4,5-dihydro-1H-pyrrolo[3,2-c]pyridine-2-carboxamide] the “T/C (%) growth rate of the tumor size” value [1] was 5.3% and the inhibition at 1 µM [2] was 100%.

`CCCOc1c(C(=O)NC2CCN(C(=O)CO)CC2)n(C)c2cc(C)n(CC(=O)c3ccccc3)c(=O)c12` [Example 137, N-[1-(hydroxyacetyl)piperidin-4-yl]-1,6-dimethyl-4-oxo-5-(2-oxo-2-phenylethyl)-3-propoxy-4,5-dihydro-1H-pyrrolo[3,2-c]pyridine-2-carboxamide] showed an inhibition at 1 µM [2] of 100%.

`CCc1cc2c(c(OCC(F)(F)F)c(C(=O)NC3CCN(C(=O)CO)CC3)n2C)c(=O)n1CC(=O)c1cccc(OC)c1` [Example 656, 6-ethyl-N-[1-(hydroxyacetyl)piperidin-4-yl]-5-[2-(3-methoxyphenyl)-2-oxoethyl]-1-methyl-4-oxo-3-(2,2,2-trifluoroethoxy)-4,5-dihydro-1H-pyrrolo[3,2-c]pyridine-2-carboxamide] showed an inhibition at 1 µM [2] of 100%.

In the case of `CCN(CC)CCCC(C)NC(=O)c1sc2c(c1OC)c(=O)n(CC(=O)c1ccccc1)c1ccccc21` (centres unmarked) [Example 13, N-[4-(diethylamino)-1-methylbutyl]-3-methoxy-4-oxo-5-(2-oxo-2-phenylethyl)-4,5-dihydrothieno[3,2-c]quinoline-2-carboxamide trifluoroacetate], the inhibition at 1 µM [2] is reported as 100% and the IC50 [2] is reported as at most 1000 nM.

`CCN(C(C)=O)C1CCN(C(=O)c2sc3c(c2OC)c(=O)n(CC(=O)c2ccccc2)c2ccccc32)C1` (centres unmarked) [Example 2, N-ethyl-N-(1-{[3-methoxy-4-oxo-5-(2-oxo-2-phenylethyl)-4,5-dihydrothieno[3,2-c]quinolin-2-yl]carbonyl}pyrrolidin-3-yl)acetamide] was tested, and the inhibition at 1 µM [2] was 100% and the IC50 [2] was at most 1000 nM.

`COc1c(C(=O)N2CCCCC2CN)sc2c1c(=O)n(CC(=O)c1ccccc1)c1ccccc21` (centres unmarked) [Example 73, 2-{[2-(aminomethyl)piperidin-1-yl]carbonyl}-3-methoxy-5-(2-oxo-2-phenylethyl)thieno[3,2-c]quinolin-4(5H)-one hydrochloride] showed an inhibition at 1 µM [2] of 100% and an IC50 [2] of at most 1000 nM.

Work on `CCc1cc2c(c(OCC(F)(F)F)c(C(=O)NC3CCN(C(=O)CO)CC3)n2C)c(=O)n1CCc1ccccc1` [Example 661, 6-ethyl-N-[1-(hydroxyacetyl)piperidin-4-yl]-1-methyl-4-oxo-5-(2-phenylethyl)-3-(2,2,2-trifluoroethoxy)-4,5-dihydro-1H-pyrrolo[3,2-c]pyridine-2-carboxamide] yielded an inhibition at 1 µM [2] of 100%.
